Where “and” joins values, the source holds several entries; their conditions need not be identical. Identical values can stand only once.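 These data come from cells grown in 96-well plates and exposed to compound for 48 hours at five concentrations. GI50 is the concentration that inhibits growth by half. TGI: concentration producing complete growth inhibition.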
Tests used:
Assay in all cases: growth of human tumour cells (NCI), 48 h
[1] = tested on: CCRF-CEM leukemia
[2] = tested on: HCT-15 colon
[3] = tested on: HL-60(TB) leukemia
[4] = tested on: IGROV1 ovarian
[5] = tested on: K-562 leukemia
[6] = tested on: SR leukemia
[7] = tested on: SW-620 colon
[8] = tested on: TK-10 renal
[9] = tested on: DMS 273 small cell lung
[10] = tested on: LXFL 529 NSCLC

SMILES	GI50 [1]	TGI [1]	GI50 [2]	TGI [2]	GI50 [3]	TGI [3]	GI50 [4]	TGI [4]	GI50 [5]	TGI [5]	GI50 [6]	TGI [6]	GI50 [7]	TGI [7]	GI50 [8]	TGI [8]	TGI [9]	TGI [10]
C=C1C[C@@H]2[C@H](CC[C@]3(C)C(=O)CC[C@@H]23)[C@@]2(C)C=CC(=O)C=C12	24.5 µM	> 74.9 µM	10 µM	34.3 µM	26 µM	> 63.4 µM	34.4 µM	> 100 µM	> 59.8 µM	> 100 µM	> 54.4 µM	> 79.9 µM	34.7 µM	> 100 µM	48.1 µM	> 100 µM		
Cc1nn2c(/C=C3\C(=O)Nc4ccccc43)c(C)nc2s1	30.1 µM	> 100 µM	17.1 µM	> 100 µM	21 µM	> 100 µM	30.6 µM	> 100 µM	6.71 µM	> 100 µM	4.86 µM	> 100 µM	8.87 µM	> 100 µM	88.7 µM	> 100 µM		
COC(=O)/C(=N/O)C(C(=O)OC)C(=O)C(=O)Nc1c(Cl)cc(C)cc1S(=O)(=O)O (configuration not stated)		> 100 µM		> 100 µM		> 100 µM		> 100 µM		> 100 µM		42.8 µM				> 100 µM	33.2 µM	> 100 µM
O=C(O)c1oc2cccc3c2c1CCC3		> 100 µM		> 100 µM		> 100 µM		> 100 µM		> 100 µM		> 100 µM		> 100 µM		> 100 µM	> 100 µM	> 100 µM
CCCCN(CCCC)C(=O)C(=O)CC(=O)/C=C/c1ccccc1		> 100 µM		> 100 µM		> 100 µM		> 100 µM		> 100 µM		> 100 µM		> 100 µM		> 100 µM	> 100 µM	> 100 µM
COC(=O)c1nn(C(=N)c2ccc(Cl)cc2)c2c1CCCCC2		> 100 µM		> 100 µM		> 100 µM		> 100 µM		> 100 µM		> 100 µM		> 100 µM		> 100 µM	> 100 µM	> 100 µM
Cc1ccc(S(=O)(=O)c2ccsc2N)cc1	> 100 µM	> 100 µM	> 100 µM	> 100 µM	> 100 µM	> 100 µM	> 100 µM	> 100 µM	> 100 µM	> 100 µM	> 100 µM	> 100 µM	> 100 µM	> 100 µM	> 100 µM	> 100 µM		
S=c1[nH]nc(SCc2ccccc2Cl)c2[nH]cnc12		> 100 µM		> 100 µM		> 100 µM		> 100 µM		> 100 µM		> 100 µM		> 100 µM		> 100 µM		
O=C1NC(O)CCN1C1CC(O)C(CO)O1 (configuration not stated)		> 100 µM		> 100 µM		> 100 µM		> 100 µM		> 100 µM		> 100 µM		> 100 µM		> 100 µM		
Cc1c(N)nc(C(CC(N)=O)NCC(N)C(N)=O)nc1C(=O)NC(C(=O)NC(C)C(O)C(C)C(=O)NC(C(=O)NCCc1nc(-c2nc(C(=O)NCCCNCCCCN)cs2)cs1)C(C)O)C(OC1OC(CO)C(O)C(O)C1OC1OC(CO)C(O)C(OC(N)=O)C1O)c1cnc[nH]1 (configuration not stated)	3.15 µg/mL	> 10 µM	1.92 µg/mL	> 10 µM	11.8 µg/mL		9.17 µg/mL and 6.68 µg/mL	> 10 µM	29.2 µg/mL	> 10 µM	0.0139 µg/mL	0.287 µg/mL	25.2 µg/mL	> 10 µM	19.4 µg/mL	> 10 µM	> 10 µM	> 10 µM
O=c1[nH]cnc2nc(-c3ccc(N(CCCl)CCCl)cc3)[nH]c12	> 100 µM	> 100 µM	9.81 µM	> 100 µM	> 100 µM	> 100 µM	26.9 µM	> 100 µM	1.9 µM	> 100 µM	> 100 µM	> 100 µM	6.46 µM	> 100 µM	15.4 µM	48.4 µM		
N[C@H](C(=O)O)[C@@H](Cl)CC(=O)O		> 100 µM		> 100 µM		> 100 µM		> 100 µM		> 100 µM				> 100 µM		> 100 µM	> 100 µM	> 100 µM
O=C(O)c1ccc2cccnc2c1O	0.989 µM	> 60.8 µM	0.994 µM	> 100 µM	1.89 µM	6.43 µM	1.38 µM	25.8 µM	0.896 µM	> 100 µM	2.23 µM	> 100 µM	2 µM	> 100 µM	1.85 µM	> 100 µM		
CCOC(=O)NC(=O)c1cn(C2OC(CO)C(O)C2O)c(=O)[nH]c1=O (configuration not stated)				> 100 µM		> 100 µM		> 100 µM		> 100 µM		> 100 µM		> 100 µM			> 100 µM	> 100 µM
c1ccc(-c2cnc3nc4ccccc4nc3n2)cc1		10.2 µM		> 100 µM		> 100 µM		17.5 µM		> 100 µM		4.81 µM		18 µM		20.8 µM		

Reference: PubChem BioAssay (NCI)
